Read-outs that look alike come from different tables or passages of the source. Each block holds one compound with its values, some of them ahead of it.
Tests used:
[1] = loach liver microsomes; cited from earlier work
[2] = enantioselective degradation of paclobutrazol in rat liver microsomes (Wu et al.); type: in vitro ADME; settings: reconstructed from data of Fig. 3A in ref 19; R^2 0.97
Protocol: (§1) In addition to the microsome studies, the Rayleigh equation was fitted to reported studies on biodegradation of chiral compounds using liver microsomes and hepatocytes for which there was sufficient data available. We focused on studies published on years 2011–2015 that reported on first order kinetics and/or provided concentration - time profiles of the individual enantiomers after incubation of the racemate with the metabolizer, i.e. systems analyzed by approach II in the introduction.

[3] = de-methylation (enantioselective degradation) by Wistar Han rat liver microsomes; type: in vitro ADME; settings: RLM-W, racemate, 37 °C, 0–120 min
Protocol: (§2) The reactions were initiated by the addition of 120 μl NADPH-regenerating system (100 μL of solution A and 20 μL of solution B) that were added after a 3-min pre-incubation of the incubation mixtures containing 10 μl of substrate (1 g/L), 50 μl human/rat hepatic microsomes (20 mg protein/ml) and […] sodium phosphate buffer, 0.1 M pH 7.4 final volume was 500 μl. The reactions were stopped at time intervals by cooling on ice and addition of 100 μl acetonitrile followed by the addition of 20 μL internal standards stock solution (0.1 g/L). After termination of the reaction 200 microliter sodium carbonate solution (1 M, pH 12) was added and samples were then vigorously shaken for 1 min and consequently extracted into 6 ml n-hexane/acetonitrile (98/2 vol/vol) using an Intelli mixer on 50 rpm for 5 min. after centrifugation for 10 min (6,000 rpm) the upper organic layer was collected and the procedure was repeated. The samples were eventually evaporated till dry under a gentle stream of nitrogen. The residue was dissolved in 200 microliter methanol and analyzed by HPLC-MS. These degradation studies were done in duplicates.
(§3) Control assays were run under the same conditions, with 200 μL insect control supersomes (5 mg protein/ml) used as a negative control, i.e containing no CYP450 but the same protein content (cytochrome b5), while 10 μl of Verapamil (1 g/L) and 50 μl human microsomes (20 mg protein/ml) was incubated for 30 min as a positive control.
(§4) The chiral separation method was based on methodology of Begnall et al.[62]. […] For all separations the column and autosampler were maintained at 25 °C, with an optimal chromatographic run time of 24 minutes, the injection volume was 10 μL. QTOF mass spectrometer equipped with an electrospray ionization source (Agilent G3251A Dual ESI) was used for chiral drug identification and quantification. Analysis was performed in positive mode with a capillary voltage potential of 4000 V; the nebulizer gas pressure was set to 40 psi and drying gas flow was 10 L/min, with a drying gas temperature of 300 °C. The fragmentor voltage was set at 140 V, and skimmer voltage was 65 V. Scan range was 50–1000 m/z, the other MS parameters remained at auto-tune conditions.
(§5) The enantiomeric ratios were expressed as the ER – the peak area of one enantiomer (the more abundant) divided by that of the other enantiomer.

[4] = de-methylation (enantioselective degradation) by human liver microsomes; settings: HLM, racemate, 37 °C, 0–120 min
Protocol: as §2, §3, §4, §5

[5] = de-methylation by liver microsomes, statements pooled over all microsome sources; type: in vitro ADME, human and rat; settings: through all the incubations with the various microsomes
Protocol: as §2, with “The samples were eventually evaporated till dry under a gentle stream of nitrogen.” left out, “These degradation studies were done in duplicates.” left out
The chiral separation method was based on methodology of Begnall et al.[62]. […] QTOF mass spectrometer equipped with an electrospray ionization source (Agilent G3251A Dual ESI) was used for chiral drug identification and quantification. […]
as §5

[6] = de-methylation (enantioselective degradation) by Sprague Dawley rat liver microsomes; type: in vitro ADME; settings: RLM-SD, racemate, 37 °C, 0–120 min
Protocol: as §2, §3, §4, §5

[7] = de-methylation (enantioselective degradation) by Lewis rat liver microsomes; type: in vitro ADME; settings: RLM-L, racemate, 37 °C, 0–120 min
Protocol: as §2, §3, §4, §5

[8] = parameters: method as in PMID 24027055; settings: male Sprague–Dawley rat liver microsomes; cited from earlier work
[9] = enantioselective metabolism of diclofop-methyl in fish liver microsomes (Ma et al.); type: in vitro ADME, loach (Misgurnus anguillicaudatus); settings: reconstructed from data of Fig. 3A in ref 50; R^2 = 0.94
Protocol: as §1

[10] = in vivo enantioselective behaviour in rabbit plasma and tissues after intravenous racemate (Sun et al.)
From the text: (§6) For example, Sun et al.[26] have reviewed the enantioselective behavior of the fungicide myclobutanil enantiomers in variant rabbit tissues following intravenous administration of the racemic fungicide. Using the plasma concentration-time curves of the two enantiomers (presented in Fig. 1A in ref. [26]) we obtained the enantiomeric enrichment factor of −28 ± 5 (R^2 = 0.97). Analysis of the distribution of myclobutanil in various tissues, presented in Fig. 3 in ref. [26], obtained the enantiomeric enrichment factors of −33 ± 16 (R^2 = 0.92) for the liver, −20 ± 6 (R^2 = 0.97) for the brain, −32 ± 16 (R^2 = 0.89) for the kidney and −21 ± 6 (R^2 = 0.97) for the muscle. […] This quantitative ranking is obscured by the large number of time trace data points in the original presentation. Another example can be presented by the study of Kong et al.[25] reporting on the stereoselective metabolism of the alpha blocker doxazosin (DOX) in vivo in male Sprague–Dawley rats.

[11] = enantioselective metabolism in rat hepatocytes (reported studies); type: in vitro ADME
Protocol: as §1
Wang et al.[24] studied the enantioselective metabolism of the fungicide hexaconazole as well, they used male Sprague–Dawley rat hepatocytes. […] In a second test case, Wang et al.[52] studied the degradation of the fungicide myclobutanil in hepatocytes from male Sprague–Dawley rats.

[12] = metabolism of hexaconazole in male Sprague–Dawley rat liver microsomes (Shen et al.); type: in vitro ADME; settings: reconstructed from data of Fig. 3A in ref 20; R^2 = 0.99
Protocol: as §1

[13] = parameters: method as in PMID 25820472; settings: rat liver microsomes; cited from earlier work
[14] = hepatic microsomes; cited from earlier work
[15] = stereoselective degradation of metalaxyl in hepatic microsomes (Zhang et al.); type: in vitro ADME, rat and rabbit; settings: calculated from concentration-time data of Fig. 3a in ref 22; R^2 = 0.98
Protocol: as §1

[16] = in vivo stereoselective metabolism of doxazosin, plasma concentration-time profiles (Kong et al.); settings: male Sprague–Dawley rats, from Fig. 3 in ref 25, R^2 = 0.92
From the text: as §6

Structure (SMILES): COC(=O)[C@H](C)Oc1ccc(Oc2ccc(Cl)cc2Cl)cc1 [(S)-DM]
individual first order degradation rate constant [1]: 0.1904 min⁻¹

Structure (SMILES): COC(=O)[C@@H](C)Oc1ccc(Oc2ccc(Cl)cc2Cl)cc1 [(R)-DM]
individual first order degradation rate constant [1]: 0.0346 min⁻¹

Structure (SMILES): CC(C)(C)[C@@H](O)[C@@H](Cc1ccc(Cl)cc1)n1cncn1 (racemic) [(2RS, 3RS)-paclobutrazol]
enantiomeric enrichment factor [2]: −66 ± 14%

Overall first order kinetic constant, kc [3]: 0.05 min⁻¹ | Overall first order kinetic constant, kc [4]: 0.01 min⁻¹ | enantiomeric ratio, ER [5]: 1.1 ± 0.08 | Overall first order kinetic constant, kc [6]: 0.03 min⁻¹ | Overall first order kinetic constant, kc [7]: 0.009 min⁻¹
Structure (SMILES): COc1ccc(C(CN(C)C)C2(O)CCCCC2)cc1 (racemic) [VNF, (R,S)-venlafaxine]

Structure (SMILES): CCCCC(O)(Cn1cncn1)c1ccc(Cl)cc1Cl (single isomer, unassigned; (-)) [(−)-hexaconazole]
individual first order degradation rate constant [8]: 0.06804 min⁻¹

Structure (SMILES): COC(=O)C(C)Oc1ccc(Oc2ccc(Cl)cc2Cl)cc1 (stereo not drawn) [diclofop-methyl]
enantiomeric enrichment factor [9]: −142 ± 40%

Structure (SMILES): CCCCC(C#N)(Cn1cncn1)c1ccc(Cl)cc1 (stereo not drawn) [myclobutanil]
enantiomeric enrichment factor ([10]; rabbit brain, from Fig. 3 in ref 26, R^2 = 0.97): −20 ± 6 | enantiomeric enrichment factor ([10]; rabbit kidney, from Fig. 3 in ref 26, R^2 = 0.89): −32 ± 16 | enantiomeric enrichment factor ([10]; rabbit liver, from Fig. 3 in ref 26, R^2 = 0.92): −33 ± 16 | enantiomeric enrichment factor ([10]; rabbit muscle, from Fig. 3 in ref 26, R^2 = 0.97): −21 ± 6 | enantiomeric enrichment factor ([10]; rabbit plasma, intravenous racemate, from Fig. 1A in ref 26, R^2 = 0.97): −28 ± 5 | decay kinetics / adherence to the Rayleigh law ([10]; rabbits' hearts and fats, data of ref 26): does not follow linear kinetics | enantiomeric enrichment factor ([11]; myclobutanil, reconstructed from Fig. 3a in ref 52, R^2 = 0.97): −24 ± 2%

Structure (SMILES): CCCCC(O)(Cn1cncn1)c1ccc(Cl)cc1Cl (stereo not drawn) [hexaconazole]
enantiomeric enrichment factor [12]: −37 ± 2% | enantiomeric enrichment factor ([11]; hexaconazole, reconstructed from Fig. 3a in ref 24, R^2 = 0.99): −184 ± 6%

Structure (SMILES): CC(C)(C)[C@H](O)[C@H](Cc1ccc(Cl)cc1)n1cncn1 [(2S, 3S)-paclobutrazol]
individual first order degradation rate constant [13]: 0.0634 min⁻¹

Structure (SMILES): COCC(=O)N(c1c(C)cccc1C)[C@H](C)C(=O)OC [(−)-R-MX]
half-life [14]: 15.58 min | individual degradation constant [15]: 0.0415 min⁻¹

enantiomeric enrichment factor [16]: −45 ± 13
Structure (SMILES): COc1cc2nc(N3CCN(C(=O)C4COc5ccccc5O4)CC3)nc(N)c2cc1OC (stereo not drawn) [DOX, doxazosin]

Structure (SMILES): COCC(=O)N(c1c(C)cccc1C)[C@@H](C)C(=O)OC [(+)-S-MX]
half-life [14]: 7.71 min | individual degradation constant [15]: 0.0864 min⁻¹

Structure (SMILES): CC(C)(C)[C@@H](O)[C@@H](Cc1ccc(Cl)cc1)n1cncn1 [(2R, 3R)-paclobutraz]
individual first order degradation rate constant [13]: 0.0373 min⁻¹

Structure (SMILES): CCCCC(O)(Cn1cncn1)c1ccc(Cl)cc1Cl (single isomer, unassigned; (+)) [(+)-hexaconazole]
individual first order degradation rate constant [8]: 0.09324 min⁻¹
